# In article PMC10850501 (Nature Communications, 2024):
# Where two headings read alike, the source gives them in different places. Peptide text beside a SMILES is read from it.
# Key:
# [1] = test system: SARS-CoV-2 live virus (B.1 lineage), Vero E6 cells; assay type: cell-based
# [2] = Ultracentrifugation pellet / solid-state NMR of assemblies; assay type: physicochemical; conditions: 10 mg/mL, 150,000 RCF, 30 minutes, 4 °C
# Protocol: To experimentally validate E1:ESBP3 peptide mixtures, solid-state NMR experiments were pursued. ^13C solid-state NMR measurements were conducted using cross-polarization magic angle spinning (^1H-^13C CPMAS) to evaluate sample structural order and structural differences between samples. The peptides were not isotopically enriched, so the ^13C signal was from the 1% natural abundance for ^13C.
# After peptide dissolution at 10 mg/mL, the samples were concentrated by ultracentrifugation for 30 minutes in Bruker 3.22 mm NMR rotors at 4 °C and 150,000 RCF in Ultra-clear tubes of SW-41 Ti swinging bucket rotor fitted onto a Beckman Optima XPN-100 centrifuge. A 11.75 T magnet Bruker Avance III HD 500 spectrometer (500 MHz, ^1H NMR Larmor frequency) equipped with a room temperature 3.2 mm Bruker Low-E ^1H/^13C/^15N NMR probe was used for measurements. ^13C chemical shift referencing was conducted using adamantane referenced to tetramethylsilane. 1D ^13C cross-polarization magic angle spinning (CPMAS) spectra were collected using the standard Bruker cp pulse sequence. A 10 kHz magic angle spinning speed was used for all samples. The channels frequency for the optimization of the Hartmann-Hahn condition for ^1H and ^13C are 500.133 MHz and 125.771 MHz, respectively. A recycle delay time of 4 seconds (d1) and dwell time of 5 μs (DW) were used. Acquisition time was set to 10.24 ms. […]
# [3] = Cytocompatibility (CCK8); assay type: cell-based, human; conditions: human, A549 cells, read-out: cytocompatibility, normalized to serum free media; for viability at 6 h, 10 µM: 0.01 mM peptide; for viability at 6 h, 100 µM: 0.1 mM peptide; for viability at 6 h, 1000 µM: 1 mM peptide
# Protocol: Cytocompatibility of the peptides was evaluated at 1, 0.1, and 0.01 mM with A549 cells (ATCC CCL-185) cultured in complete media consisting of 90% F-12K and 10% FBS. The A549 cells were utilized after their first passage and seeded at 10,000 cells/well in a 96-well plate for 24 hours. The conditions were prepared in serum-free A549 media and introduced into the wells for 6 hours, after which the condition media were aspirated, the wells were washed once with PBS, and 10 µL of CCK8 was added to 100 µL of PBS[32]. The plate was incubated for 1 hour and read on a Tecan M200 Infinite plate reader at an absorbance of 450 nm with a reference wavelength of 650 nm. The results were analyzed and normalized to the serum-free media control[28],[32],[76].
# [4] = target: the molecule itself; experiment: co-sedimentation + other: solid-state NMR (1H-13C CPMAS)
Molecule,"Comparative, Average [1]","live virus plaque inhibition, in words [1]",ultracentrifuge pellet (assembly into nanofibers) [2],"viability at 6 h, 10 µM ([3]; replicate 1, CCK8, 6 h)","viability at 6 h, 10 µM ([3]; replicate 2, CCK8, 6 h)","viability at 6 h, 100 µM ([3]; replicate 1, CCK8, 6 h)","viability at 6 h, 100 µM ([3]; replicate 2, CCK8, 6 h)","viability at 6 h, 100 µM ([3]; replicate 3, CCK8, 6 h)","viability at 6 h, 1000 µM ([3]; replicate 1, CCK8, 6 h exposure, absorbance 450 nm)","viability at 6 h, 1000 µM ([3]; replicate 2, CCK8, 6 h)","viability at 6 h, 1000 µM ([3]; replicate 3, CCK8, 6 h)",binding result [4]
CC(=O)N[C@@H](CCC(=O)O)C(=O)N[C@@H](CO)C(=O)N[C@@H](CC(C)C)C(=O)N[C@@H](CO)C(=O)N[C@@H](CC(C)C)C(=O)N[C@@H](CO)C(=O)N[C@@H](CC(C)C)C(=O)N[C@@H](CO)C(=O)N[C@@H](CC(C)C)C(=O)N[C@@H](CO)C(=O)N[C@@H](CC(C)C)C(=O)N[C@@H](CO)C(=O)N[C@@H](CC(C)C)C(=O)N[C@@H](CCC(=O)O)C(N)=O [E1] (Ac-ESLSLSLSLSLSLE-NH2),65.5306,no major differences,centrifuge pellets,117%,122%,111%,147%,117%,169%,195%,139%,
Ac-ESLSLSLSLSLSLE-NH2 (also called E-(SL)6-E; E-flanked SAP) [E1 self-assembling peptide (E-SLSLSLSLSLSL-E)],,,,,,,,,,,,binds
